Read-outs that look alike come from different tables or passages of the source.
Tests used:
INA-6 cells = assay: Cell viability (Cell Titer Glo), INA-6; type: cell-based; conditions: 72 hours
Description: (§1) Western blotting was performed as previously described (Battle T E, Arbiser J, & Frank D A (2005) The natural product honokiol induces caspase dependent apoptosis in B-cell chronic lymphocytic leukemia (B-CLL) cells. Blood 106(2):690-697). Antibodies to phospho-MAPK (9101), total MAPK (9102), phospho-Y705 STAT3 (9131), phospho-S6 (2215), total S6 (2217), phospho-4E-BP1 (9451), total 4E-BP1 (9644), total RSK (9355), phospho-S6K (9234, 85 used at 1:5000), total S6K (2708), phospho-eIF2α (9721, used at 1:1000), total eIF2α (5324), ATF4 (11815, used at 1:1000), PDGFRβ (3169), IGF1Rβ (9750), EGFR (2232), and HER2 (2242) were from Cell Signaling Technology. Phospho-RSK antibody was from R&D (AF889). Antibodies to total STAT3 (sc-482) and gp130 (sc-656, used at 1:1000) were from Santa Cruz Biotechnology. Phospho-S727 STAT3 antibody was described previously (229). REDD1 antibody was from Proteintech (10638-1-AP, used at 1:1000). Antibody recognizing full-length and cleaved ATF6 was from Abcam (ab122897, used at 1:1000). Antibodies to tubulin (T5168) and beta actin (A5316) were from Sigma. All antibodies were used at 1:10000 dilution for western blot unless otherwise noted. […] Cell viability was measured as ATP-dependent luminescence by Cell Titer Glo (Promega). […]

HEL cells = assay: PI cell cycle analysis, HEL; type: cell-based; conditions: 25 μM, 24 hours
Description: Annexin V/PI staining was performed using Annexin V:FITC Apoptosis Detection Kit I (BD Biosciences). Staining for cell cycle analysis was performed as previously described (267). Staining for cell-surface receptors was performed in 50 μl PBS+2% FBS with 2 μl antibody to IL6R (BioLegend #352803) or 5 μl antibody to gp130 (BD Biosciences #555757) for 20 minutes on ice in the dark. Cells were washed twice, then resuspended in 300 μl of the same buffer. Samples were analyzed on a BD FACSCanto II machine. Transfection and siRNA Cells were reverse-transfected using Lipofectamine RNAiMAX (Invitrogen); the culture medium was changed 24 hours later. Control siRNA (D-001210-02) and REDD1 siRNA (M-010855-01) were from Thermo Scientific Dharmacon. Additionally, it was hypothesized atovaquone inhibits proliferation by disrupting cell cycle progression. […] In summary, atovaquone inhibits constitutive STAT3 activation and target gene expression in cancer cells, and reduces their survival and proliferation.

[1] = tested on: malignant hematological cell lines that lack STAT3 activation; assay: Cell viability of hematologic cancer cells lacking STAT3 activation; type: cell-based; conditions: 72 hours
Description: as §1

[2] = cited from earlier work

O=C1C(O)=C([C@H]2CC[C@H](c3ccc(Cl)cc3)CC2)C(=O)c2ccccc21 [atovaquone, trans-2-[4-(4-chlorophenyl)cyclohexyl]-3-hydroxy-1,4-naphthalenedione]
viability of INA-6 cells at higher doses (INA-6 cells): complete loss of viability | IC50 (INA-6 cells; INA-6): 11.9 µM | population of cells in G2/M (HEL cells): decreased the population of cells in G2/M | proportion of cells with lower DNA content (HEL cells): increased the proportion of cells with lower DNA content | viability of malignant hematological cell lines that lack STAT3 activation [1]: reduced the viability | plasma concentrations achieved in patients ([2]; patients taking standard doses): 40 to 80 µM | plasma concentrations achieved in patients ([2]; patients): 15000 to 30000 ng/mL

From patent publication US10130590B2, “Methods of treating cancer with atovaquone-related compounds” (DANA-FARBER CANCER INSTITUTE, INC., priority 2013, dated 2018)
